Assay results from ChEMBL document CHEMBL6121016, “Design, Synthesis, and Biological Evaluation of 1,3,4-Thiadiazole Derivatives as Novel Potent Peptide Deformylase Inhibitors for Combating Drug-Resistant Gram-Positive and -Negative Bacteria” (J Med Chem, 2025).
≈ marks a conversion by molar mass, not a printed value. Calls of active or inactive are those of the source. No cut-off for these calls is given here.

What was measured:
[1] = system: Staphylococcus aureus; assay: Antibacterial activity against methicillin-resistant Staphylococcus aureus ATCC 33591 after 16 to 18 hrs by broth microdilution method; assay type: functional; conditions: time 16-18 hrs
[2] = system: Staphylococcus aureus; assay: Antibacterial activity against methicillin-resistant Staphylococcus aureus ATCC 43300 after 16 to 18 hrs by broth microdilution method; assay type: functional; conditions: time 16-18 hrs
[3] = system: Staphylococcus aureus; assay: Antibacterial activity against methicillin-resistant Staphylococcus aureus Bio-090770 after 16 to 18 hrs by broth microdilution method; assay type: functional; conditions: time 16-18 hrs
[4] = system: Staphylococcus aureus; assay: Antibacterial activity against methicillin-susceptible Staphylococcus aureus ATCC 29213 after 16 to 18 hrs by broth microdilution method; assay type: functional; conditions: time 16-18 hrs
[5] = system: Staphylococcus aureus; assay: Antibacterial activity against methicillin-susceptible Staphylococcus aureus ATCC 13709 after 16 to 18 hrs by broth microdilution method; assay type: functional; conditions: time 16-18 hrs
[6] = system: Staphylococcus epidermidis; assay: Antibacterial activity against Staphylococcus epidermidis after 16 to 18 hrs by broth microdilution method; assay type: functional; conditions: time 16-18 hrs
[7] = system: Escherichia coli; assay: Antibacterial activity against Escherichia coli ATCC 25922 after 16 to 18 hrs by broth microdilution method; assay type: functional; conditions: time 16-18 hrs
[8] = system: Acinetobacter baumannii; assay: Antibacterial activity against Acinetobacter baumannii Bio 34235 after 16 to 18 hrs by broth microdilution method; assay type: functional; conditions: time 16-18 hrs
[9] = system: Acinetobacter baumannii; assay: Antibacterial activity against drug-resistant Acinetobacter baumannii Bio 53272 after 16 to 18 hrs by broth microdilution method; assay type: functional; conditions: time 16-18 hrs
[10] = system: Acinetobacter baumannii; assay: Antibacterial activity against Acinetobacter baumannii Bio 24253 after 16 to 18 hrs by broth microdilution method; assay type: functional; conditions: time 16-18 hrs
[11] = system: Acinetobacter baumannii; assay: Antibacterial activity against Acinetobacter baumannii Bio 69680 after 16 to 18 hrs by broth microdilution method; assay type: functional; conditions: time 16-18 hrs
[12] = system: Acinetobacter baumannii; assay: Antibacterial activity against Acinetobacter baumannii Bio 120982 after 16 to 18 hrs by broth microdilution method; assay type: functional; conditions: time 16-18 hrs
[13] = system: Klebsiella pneumoniae; assay: Antibacterial activity against Klebsiella pneumoniae CICC 21092 after 16 to 18 hrs by broth microdilution method; assay type: functional; conditions: time 16-18 hrs
[14] = system: Klebsiella pneumoniae; assay: Antibacterial activity against Klebsiella pneumoniae CICC 20093 after 16 to 18 hrs by broth microdilution method; assay type: functional; conditions: time 16-18 hrs
[15] = system: Escherichia coli; assay: Antibacterial activity against Escherichia coli ATCC 10663 after 16 to 18 hrs by broth microdilution method; assay type: functional; conditions: time 16-18 hrs
[16] = system: Escherichia coli; assay: Antibacterial activity against Escherichia coli ATCC 10661 after 16 to 18 hrs by broth microdilution method; assay type: functional; conditions: time 16-18 hrs
[17] = Cytotoxicity against human HEK293T cells assessed as cell viability at 3.125 to 100 uM incubated for 24 hrs by MTT assay; assay type: toxicity, cell-based, HEK-293T
[18] = Aqueous solubility of compound at 0.9% aqueous NaCl solution incubated for 2 hrs by UV spectrophotometry analysis; assay type: physicochemical
[19] = system: Acinetobacter baumannii; assay: Potency index, ratio of ciprofloxacin MIC to test compound MIC for antibacterial activity against drug-resistant Acinetobacter baumannii after 16 to 18 hrs by broth microdilution method; assay type: functional; conditions: time 16-18 hrs
[20] = system: Cell membrane; assay: Induction of cell membrane disruption in Acinetobacter baumannii assessed as outer membrane integrity by NucGreen/EthD-III costain fluorescent assay; assay type: subcellular
[21] = system: Staphylococcus aureus; assay: Induction of morphological changes in methicillin-resistant Staphylococcus aureus RB 3641 assessed as disintegration of cells at 8 times of MIC incubated for 4 hrs by Field emission scanning electron microscopic analysis; assay type: functional, organism-based
[22] = system: Acinetobacter baumannii; assay: Induction of intracellular ROS production in Acinetobacter baumannii Bio 53272 cells assessed as membrane potential imbalance incubated for 12 hrs by DCFH-DA probe based ROS assay; assay type: functional, organism-based
[23] = Methemoglobin toxicity in human blood at 500 uM incubated for 6 hrs by MetHb content assay; assay type: tissue-based
[24] = system: Staphylococcus aureus; assay: Anti-biofilm activity against methicillin-resistant Staphylococcus aureus assessed as growth inhibition at 0.031 microg/ml incubated for 24 hrs by microplate reader analysis relative to control; assay type: functional
[25] = system: Acinetobacter baumannii; assay: Anti-biofilm activity against of Acinetobacter baumannii assessed as growth inhibition at 2 microg/ml incubated for 24 hrs by microplate reader analysis relative to control; assay type: functional
[26] = system: Staphylococcus aureus; assay: Anti-biofilm activity against mature methicillin-resistant Staphylococcus aureus at 8 microg/ml incubated for 24 hrs by microplate reader analysis; assay type: functional; conditions: dose 8 µg/ml
[27] = system: Acinetobacter baumannii; assay: Anti-biofilm activity against Acinetobacter baumannii at 0.5 to 64 microg/ml incubated for 24 hrs by microplate reader analysis; assay type: functional; conditions: dose 0.5-64 µg/ml, at 0.5 to 64 µg/mL
[28] = biological target: T1, Peptide deformylase (Staphylococcus aureus, UniProt P68826); assay: Inhibition of Staphylococcus aureus PDF-Ni assessed as enzyme activity incubated for 30 min by fluorescamine method
T1 sequence (P68826 whole entry): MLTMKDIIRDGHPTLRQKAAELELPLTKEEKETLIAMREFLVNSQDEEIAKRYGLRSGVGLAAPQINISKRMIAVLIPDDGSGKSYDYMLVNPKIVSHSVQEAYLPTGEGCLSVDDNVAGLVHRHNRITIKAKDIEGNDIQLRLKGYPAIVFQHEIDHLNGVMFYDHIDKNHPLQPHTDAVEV

[29] = biological target: T2, Peptide deformylase (Escherichia coli, UniProt Q9JN24); assay: Inhibition of Escherichia coli PDF-Ni assessed as enzyme activity incubated for 30 min by fluorescamine method
T2 sequence (Q9JN24 whole entry): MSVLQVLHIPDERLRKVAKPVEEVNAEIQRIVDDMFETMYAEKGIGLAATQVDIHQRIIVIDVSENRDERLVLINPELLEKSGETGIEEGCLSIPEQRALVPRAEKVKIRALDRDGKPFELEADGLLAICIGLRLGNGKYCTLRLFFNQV

[30] = Acute toxicity in KM mouse infected with drug-resistant Acinetobacter baumannii assessed as survival rate at 40 mg/kg; assay type: organism-based; conditions: in vivo
[31] = system: Acinetobacter baumannii; assay: In vivo anti-bacterial activity against drug-resistant Acinetobacter baumannii infected MK mouse; assay type: functional
[32] = Acute toxicity in KM mouse infected with drug-resistant Acinetobacter baumannii assessed as pathological changes in lungs at 40 mg/kg by HE staining based analysis; assay type: organism-based; conditions: in vivo
[33] = Acute toxicity in KM mouse infected with drug-resistant Acinetobacter baumannii assessed as pathological changes in kidney at 40 mg/kg by HE staining based analysis; assay type: organism-based; conditions: in vivo
[34] = Acute toxicity in normal mouse assessed as death at 200 mg/kg, iv observed for 14 days; assay type: organism-based; conditions: in vivo, 336 h, time 14 day
[35] = Acute toxicity in normal mouse assessed as death at 400 mg/kg, iv observed for 14 days; assay type: organism-based; conditions: in vivo, 336 h, time 14 day
[36] = system: Staphylococcus aureus; assay: Bactericidal activity against methicillin-resistant Staphylococcus aureus assessed as bacteriostatic efficiency at 0.25 microg/mL incubated for 24 hrs by time killing analysis relative to control; assay type: functional; conditions: dose 0.25 µg/ml
[37] = system: Acinetobacter baumannii; assay: Bactericidal activity against drug-resistant Acinetobacter baumannii assessed as bacteriostatic efficiency measured after 0 to 24 hrs by time killing analysis; assay type: functional, organism-based; conditions: dose 0.5-2 µg/ml, time 0-24 hrs
[38] = system: Acinetobacter baumannii; assay: Bactericidal activity against drug-resistant Acinetobacter baumannii assessed as bacteriostatic efficiency at 2 microg/mL measured within 24 hrs by time killing analysis relative to control; assay type: functional, organism-based; conditions: dose 2.0 µg/ml
[39] = system: Acinetobacter baumannii; assay: In vivo anti-bacterial activity against drug-resistant Acinetobacter baumannii infected MK mouse assessed as pathological changes of organs at 40 mg/kg; assay type: functional, organism-based
[40] = Acute toxicity in normal mouse assessed as aberrant behaviors at 200 mg/kg, iv observed for 14 days; assay type: organism-based; conditions: in vivo, 336 h, time 14 day
[41] = Acute toxicity in normal mouse assessed as aberrant behaviors at 400 mg/kg, iv observed for 14 days; assay type: organism-based; conditions: in vivo, 336 h, time 14 day

## CCCC[C@H](CN(O)C=O)C(=O)N1CCC[C@H]1c1nnc(-c2cccs2)s1
[1]
  MIC: 0.125 µg/mL (≈ 0.306 µM)
[2]
  MIC: 0.125 µg/mL (≈ 0.306 µM)
[3]
  MIC: 0.25 µg/mL (≈ 0.612 µM)
[4]
  MIC: 0.25 µg/mL (≈ 0.612 µM)
[5]
  MIC: 0.25 µg/mL (≈ 0.612 µM)
[6]
  MIC: 0.125 µg/mL (≈ 0.306 µM)
[7]
  MIC: 2 µg/mL (≈ 4.9 µM)
[8]
  MIC: 4 µg/mL (≈ 9.79 µM)
[9]
  MIC: 0.5 µg/mL (≈ 1.22 µM)
[10]
  MIC: 4 µg/mL (≈ 9.79 µM)
[11]
  MIC: 4 µg/mL (≈ 9.79 µM)
[12]
  MIC: 4 µg/mL (≈ 9.79 µM)
[13]
  MIC: 16 µg/mL (≈ 39.2 µM)
[14]
  MIC: 16 µg/mL (≈ 39.2 µM)
[15]
  MIC: 8 µg/mL (≈ 19.6 µM)
[16]
  MIC: 4 µg/mL (≈ 9.79 µM)
[17]
  IC50 at 24 h: > 100000 nM
[18]
  solubility at 2 h: 2600 µg/mL (≈ 6360 µM)
[19]
  Ratio: >64
[20]
  Activity: Active
[21]
  Activity: Active
[22]
  Activity: Active
[23]
  Activity: Toxic
[24]
  inhibition at 0.031 µg/mL: 40%
[25]
  inhibition at 2 µg/mL: 50%
[26]
  Activity: 60%
[27]
  Activity: 7.1%
[28]
  IC50: 2.5 nM
[29]
  IC50: 10.6 nM
[30]
  Activity: Non-toxic
[31]
  ED50: 30.4 mg/kg
[32]
  Activity: Non-toxic
[33]
  Activity: Non-toxic
[34]
  Activity: Non-toxic
[35]
  Activity: Non-toxic
[36]
  Activity: 100%
[37]
  Activity: Dose-dependent-effect
[38]
  Activity: Active
[39]
  Activity: inactive
[40]
  Activity: Non-toxic
[41]
  Activity: Non-toxic
